Experimental data: the supplement of paper PMC10307832

Legend:
Assay in all cases: relative viability (nuclei count vs DMSO), 5 days (fraction); higher = more cells survive
[1] = compound: CCN(CCO)CCCC(C)Nc1ccnc2cc(Cl)ccc12 [Hydroxychloroquine] + CC(C)C[C@H](NC(=O)[C@H](Cc1ccccc1)NC(=O)c1cnccn1)B(O)O [Bortezomib] (partner 0.002 µM)
Procedure, shortened: (§1)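 Nuclei were stained with Hoechst during a one-step fixation (final 0.05% Triton X-100, 1% formaldehyde, 1 ug/ml Hoechst) carried out 5 days after dosing, then counted on 4× images. The cells, lung cancer lines in 1536-well plates, had been dosed by pin tool the day after seeding with one drug alone or a fixed anchor-drug dose plus five library-drug doses (not always all listed) in √10 steps. Relative viability is the nuclei count in treated wells divided by that in vehicle wells, and each value is the median of duplicate plates.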

[2] = compound: CCN(CCO)CCCC(C)Nc1ccnc2cc(Cl)ccc12 [Hydroxychloroquine] + Cc1cc(Nc2cc(N3CCN(C)CC3)nc(Sc3ccc(NC(=O)C4CC4)cc3)n2)n[nH]1 [Tozasertib] (partner 0.1 µM)
Procedure, shortened: as §1

[3] = compound: CCN(CCO)CCCC(C)Nc1ccnc2cc(Cl)ccc12 [Hydroxychloroquine] + NC(=O)Nc1cc(-c2cccc(F)c2)sc1C(=O)N[C@H]1CCCNC1 [AZD7762] (partner 0.2 µM)
Procedure, shortened: as §1

[4] = compound: CCN(CCO)CCCC(C)Nc1ccnc2cc(Cl)ccc12 [Hydroxychloroquine] + Nc1ncn([C@H]2C[C@H](O)[C@@H](CO)O2)c(=O)n1 [Decitabine] (partner 2 µM)
Procedure, shortened: as §1

Row | Cell Line | relative viability ([1]; first compound 0.5 µM) | relative viability ([1]; first compound 1.581 µM) | relative viability ([1]; first compound 5 µM) | relative viability ([1]; first compound 15.81 µM) | relative viability ([1]; first compound 50 µM) | relative viability ([2]; first compound 0.5 µM) | relative viability ([2]; first compound 1.581 µM) | relative viability ([2]; first compound 5 µM) | relative viability ([2]; first compound 15.81 µM) | relative viability ([2]; first compound 50 µM) | relative viability ([3]; first compound 0.5 µM) | relative viability ([3]; first compound 1.581 µM) | relative viability ([3]; first compound 5 µM) | relative viability ([3]; first compound 15.81 µM) | relative viability ([3]; first compound 50 µM) | relative viability ([4]; first compound 0.5 µM) | relative viability ([4]; first compound 1.581 µM) | relative viability ([4]; first compound 5 µM) | relative viability ([4]; first compound 15.81 µM) | relative viability ([4]; first compound 50 µM)
1 | HCC-366 | 1.1 | 1.15 | 1.04 | 1.06 | 1.16 | 0.109 | 0.132 | 0.138 | 0.0907 | 0.144 | 0.228 | 0.381 | 0.289 | 0.235 | 0.384 | 0.314 | 0.348 | 0.315 | 0.316 | 0.34
2 | HOP-62 | 0.652 | 0.9 | 0.751 | 0.945 | 1.02 | 0.365 | 0.316 | 0.38 | 0.43 | 0.413 | 0.448 | 0.968 | 0.661 | 0.626 | 0.732 | 0.209 | 0.239 | 0.206 | 0.207 | 0.206
3 | LU99A | 1.11 | 1.02 | 1.11 | 1.08 | 1.26 | 0.243 | 0.229 | 0.281 | 0.256 | 0.284 | 0.427 | 0.367 | 0.533 | 0.393 | 0.317 | 0.864 | 0.795 | 0.877 | 1.01 | 1.01
4 | NCI-H650 | 0.911 | 0.759 | – | 0.901 | 0.748 | 0.736 | 0.692 | 0.681 | 0.763 | 0.708 | 1.07 | 1.05 | 0.924 | 0.956 | 0.986 | 0.347 | 0.31 | 0.361 | 0.31 | 0.307
5 | A-427 | 0.956 | 0.946 | 0.982 | 0.961 | 1.06 | 0.207 | 0.172 | 0.2 | 0.207 | 0.232 | 0.727 | 0.802 | 0.769 | 0.696 | 0.671 | 0.539 | 0.551 | 0.585 | 0.509 | 0.479
6 | NCI-H460 | 1.08 | 1.05 | 1.1 | 1.39 | 1.36 | 0.515 | 0.4 | 0.377 | 0.413 | 0.516 | 0.727 | 0.645 | 0.63 | 0.749 | 0.615 | 0.431 | 0.528 | 0.441 | 0.563 | 0.559
7 | NCI-H2126 | 1.11 | 1.07 | 1.09 | 1.1 | 1.18 | 0.821 | 0.77 | 0.836 | 0.887 | 0.949 | 1.07 | 1.12 | 0.984 | 1.08 | 1.03 | 0.584 | 0.547 | 0.57 | 0.579 | 0.566
8 | HCC-44 | 0.875 | 0.865 | 0.883 | 0.914 | 0.955 | 1.18 | 0.937 | 0.895 | 0.934 | 1.3 | 1.07 | 1.04 | 1.08 | 1.06 | 0.975 | 0.966 | 0.978 | 0.974 | 0.939 | 0.914
9 | NCI-H322M | 1.31 | 1.27 | 1.16 | 1.36 | 1.2 | 0.506 | 0.478 | 0.484 | 0.547 | 0.49 | 0.681 | 0.433 | 0.447 | 0.487 | 0.482 | 0.66 | 0.698 | 0.732 | 0.665 | 0.637
10 | EKVX | 1.26 | 0.925 | 1.04 | 0.916 | 1.09 | 0.401 | 0.316 | 0.38 | 0.374 | 0.494 | 0.549 | 0.772 | 0.753 | 0.653 | 0.759 | 0.346 | 0.308 | 0.334 | 0.407 | 0.372
11 | NCI-H1734 | 0.98 | 0.918 | 1.03 | 0.918 | 1.01 | 0.276 | 0.297 | 0.274 | 0.245 | 0.31 | 0.62 | 0.562 | 0.649 | 0.644 | 0.622 | 0.486 | 0.482 | 0.459 | 0.491 | 0.497
12 | ABC-1 | 0.263 | 0.271 | 0.277 | 0.297 | 0.235 | 0.162 | 0.136 | 0.166 | 0.172 | 0.165 | 0.754 | 0.917 | 0.797 | 0.995 | 0.711 | 1.15 | 1.1 | 1.09 | 1.35 | 0.906
13 | NCI-H596 | 1.04 | 0.857 | 0.847 | 0.999 | 1.19 | 1.16 | 0.994 | 0.858 | 0.865 | 0.987 | 0.924 | 0.902 | 1.14 | 1.11 | 1.05 | 0.954 | 1.02 | 1.12 | 0.966 | 0.993
14 | EPLC-272H | 0.762 | 0.579 | 0.736 | 0.861 | 1.08 | 0.262 | 0.152 | 0.26 | 0.257 | 0.287 | 0.168 | 0.207 | 0.214 | 0.232 | 0.193 | 0.319 | 0.403 | 0.403 | 0.321 | 0.372
15 | NCI-H441 | – | 0.426 | 0.453 | 0.552 | 0.77 | 0.759 | 0.578 | 0.61 | 0.879 | 0.591 | 1.16 | 1.47 | 1.25 | 1.5 | 1.11 | 0.23 | 0.326 | 0.241 | 0.245 | 0.228
16 | NCI-H1993 | 1.01 | 0.884 | 1.04 | 1.13 | 1.03 | 0.514 | 0.648 | 0.571 | 0.569 | 0.592 | 0.699 | 0.597 | 0.927 | 0.79 | 0.817 | 0.664 | 0.635 | 0.705 | 0.688 | 0.606
17 | NCI-H647 | 1.07 | 1.19 | 0.876 | 1.15 | 0.813 | 0.263 | 0.357 | 0.278 | 0.346 | 0.272 | 0.542 | 0.455 | 0.423 | 0.252 | 0.373 | 0.369 | 0.438 | 0.446 | 0.388 | 0.444
18 | HCC-827 | 1.03 | 1.04 | 1.07 | 1.16 | 1.01 | 0.442 | 0.442 | 0.513 | 0.467 | 0.456 | 0.207 | 0.227 | 0.237 | 0.264 | 0.22 | 0.323 | 0.302 | 0.317 | 0.301 | 0.279
19 | ChaGo-K-1 | 1.04 | 0.895 | 0.687 | 1.06 | 1.02 | 0.224 | 0.18 | 0.222 | 0.228 | 0.233 | 0.775 | 0.88 | 0.821 | 0.901 | 0.998 | 0.515 | 0.545 | 0.538 | 0.496 | 0.518
20 | EMC-BAC-2 | 0.981 | 1.03 | 1.06 | 1.12 | 1.17 | 0.307 | 0.289 | 0.31 | 0.286 | 0.258 | 1.12 | 0.887 | 1.01 | 1.07 | 1.11 | 1.01 | 0.863 | 0.965 | 0.952 | 0.952
21 | NCI-H23 | 1.15 | 1.14 | 0.884 | 1.02 | 0.881 | 0.56 | 0.337 | 0.41 | 0.65 | 0.424 | 0.263 | 0.355 | 0.21 | 0.271 | 0.248 | 0.321 | 0.294 | 0.288 | 0.288 | 0.305
22 | LC-2-ad | 0.974 | 1.03 | 1.04 | 1.01 | 1.12 | 0.447 | 0.478 | 0.415 | 0.463 | 0.455 | 0.898 | 0.822 | 0.842 | 0.832 | 0.85 | 0.732 | 0.777 | 0.776 | 0.744 | 0.854
23 | HCC-15 | 0.951 | 0.918 | 1.08 | 1.09 | 1.2 | 0.392 | 0.399 | 0.412 | 0.321 | 0.441 | 1.29 | 1.15 | 1.11 | 1.35 | 1.49 | 0.674 | 0.648 | 0.627 | 0.666 | 0.702
24 | NCI-H2405 | 1.03 | 0.918 | 1.02 | 0.989 | 1.04 | 0.769 | 0.691 | 0.756 | 0.707 | 0.728 | 0.879 | 0.841 | 0.717 | 0.675 | 0.768 | 0.718 | 0.743 | 0.774 | 0.69 | 0.761
25 | LXF-289 | 1.02 | 1.01 | 0.939 | 1.01 | 1 | 0.172 | 0.17 | 0.2 | 0.176 | 0.193 | 1.01 | 1.08 | 1.05 | 1.06 | 1.17 | 0.411 | 0.395 | 0.338 | 0.366 | 0.357
26 | NCI-H1755 | 0.955 | 0.868 | 0.918 | 0.927 | 0.953 | 0.672 | 0.548 | 0.569 | 0.656 | 0.587 | 0.616 | 0.447 | 0.396 | 0.445 | 0.514 | 0.707 | 0.644 | 0.727 | 0.694 | 0.656
27 | NCI-H1437 | 0.516 | 0.737 | 0.505 | 0.483 | 0.446 | 0.395 | 0.42 | 0.426 | 0.438 | 0.427 | 1.13 | 1.15 | 1.08 | 1.14 | 1.14 | 0.56 | 0.617 | 0.587 | 0.562 | 0.636
